Values after ≈ are worked out from the molar mass of the structure shown. Active and inactive are the calls of the source. The calls are words filed in the database; no cut-off is given here.
Columns and labels:
[1] = molecular target: E3 ubiquitin-protein ligase XIAP/Receptor-interacting serine/threonine-protein kinase 2 (Homo sapiens, UniProt O43353+P98170); assay: Protac activity at IAP/RIPK2 in human whole blood assessed as inhibition of MDP-induced TNFalpha production by ELISA; format: tissue-based
[2] = molecular target: Receptor-interacting serine/threonine-protein kinase 2 (Homo sapiens, UniProt O43353); assay: Inhibition of full length His-tagged RIPK2 (unknown origin) expressed in baculovirus expression system using fluorescent labelled ATP competitive ligand by fluorescent polarization based binding assay
[3] = system: Rattus norvegicus; assay: (§1) Ex vivo protac activity at IAP/RIPK2 in rat assessed as RIPK2 degradation at 0.5 mg/kg, sc measured for 8 to 48 hrs; format: functional; details: time 8-48 hrs
[4] = system: Rattus norvegicus; assay: (§2) Ex vivo protac activity at IAP/RIPK2 in rat assessed as inhibition of MDP-induced TNFalpha release at 0.5 mg/kg, sc measured for 8 to 48 hrs; format: functional; details: time 8-48 hrs
[5] = molecular target: E3 ubiquitin-protein ligase XIAP (Homo sapiens, UniProt P98170); assay: Binding affinity to human His-thr XIAP BIR3 (241 to 356) domain expressed in Escherichia coli measured after 105 mins in dark by time-resolved fluorescence laser-equipped multimode plate reader
[6] = as §1; format: functional; details: time 8-48 hrs
[7] = as §2; format: functional; design: scale not given: the % may be the effect or the level left; details: time 8-48 hrs
[8] = Binding affinity to human His-thr XIAP BIR2 (124 to 240) domain expressed in Escherichia coli measured after 105 mins in dark by time-resolved fluorescence laser-equipped multimode plate reader
[9] = Solubility of the compound by chemiluminescent nitrogen detection (CLND) method; format: physicochemical
[10] = Lipophilicity, logD of compound at pH 7.4 by Chromatography; format: physicochemical; details: buffer
[11] = Metabolic stability in human liver microsomes assessed as intrinsic clearance using pH 7.4 phosphate buffer incubated for 45 mins by LC-MS/MS analysis; format: ADME, Microsome; details: pH 7.4, 0.75 h
[12] = Metabolic stability in rat liver microsomes assessed as intrinsic clearance using pH 7.4 phosphate buffer incubated for 45 mins by LC-MS/MS analysis; format: ADME, Microsome; details: pH 7.4, 0.75 h
[13] = molecular target: T1, von Hippel-Lindau disease tumor suppressor/Receptor-interacting serine/threonine-protein kinase 2 (Homo sapiens, UniProt O43353+P40337); assay: Protac activity at VHL/RIPK2 in human THP-1 cells assessed as induction of RIPK2 degradation by measuring decrease in protein level incubated for 16 hrs by Western blot analysis; format: cell-based
[14] = molecular target: T1, von Hippel-Lindau disease tumor suppressor/Receptor-interacting serine/threonine-protein kinase 2; assay: Protac activity at VHL/RIPK2 in human whole blood assessed as inhibition of MDP-induced TNFalpha production by ELISA; format: tissue-based
[15] = molecular target: T2, Protein cereblon/Receptor-interacting serine/threonine-protein kinase 2 (Homo sapiens, UniProt O43353+Q96SW2); assay: Protac activity at CRBN/RIPK2 in human whole blood assessed as inhibition of MDP-induced TNFalpha production by ELISA; format: tissue-based
[16] = molecular target: T2, Protein cereblon/Receptor-interacting serine/threonine-protein kinase 2; assay: Protac activity at CRBN/RIPK2 in human THP-1 cells assessed as induction of RIPK2 degradation by measuring decrease in protein level incubated for 18 hrs by capillary-based immunoassay; format: cell-based
[17] = molecular target: E3 ubiquitin-protein ligase XIAP/Receptor-interacting serine/threonine-protein kinase 2 (Homo sapiens, UniProt P98170+O43353); assay: Protac activity at IAP/RIPK2 in human THP-1 cells assessed as induction of RIPK2 degradation by measuring decrease in protein level incubated for 18 hrs by capillary-based immunoassay; format: cell-based
Sequence of E3 ubiquitin-protein ligase XIAP/Receptor-interacting serine/threonine-protein kinase 2 (Homo sapiens, UniProt P98170+O43353) (P98170 whole entry): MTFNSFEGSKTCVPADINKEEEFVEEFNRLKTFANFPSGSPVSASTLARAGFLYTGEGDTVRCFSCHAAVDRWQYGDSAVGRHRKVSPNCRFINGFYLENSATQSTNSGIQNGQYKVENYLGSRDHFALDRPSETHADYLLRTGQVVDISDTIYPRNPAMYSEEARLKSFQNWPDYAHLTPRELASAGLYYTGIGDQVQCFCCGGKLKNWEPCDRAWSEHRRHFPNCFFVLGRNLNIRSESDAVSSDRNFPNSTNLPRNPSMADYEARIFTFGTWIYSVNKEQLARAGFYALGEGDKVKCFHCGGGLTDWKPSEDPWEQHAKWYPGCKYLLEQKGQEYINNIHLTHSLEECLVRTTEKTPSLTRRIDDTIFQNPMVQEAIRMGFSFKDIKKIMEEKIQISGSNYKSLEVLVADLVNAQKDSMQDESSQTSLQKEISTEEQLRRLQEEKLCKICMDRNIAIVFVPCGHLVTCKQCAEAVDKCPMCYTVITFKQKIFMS
Sequence of E3 ubiquitin-protein ligase XIAP/Receptor-interacting serine/threonine-protein kinase 2 (Homo sapiens, UniProt P98170+O43353) (O43353 whole entry): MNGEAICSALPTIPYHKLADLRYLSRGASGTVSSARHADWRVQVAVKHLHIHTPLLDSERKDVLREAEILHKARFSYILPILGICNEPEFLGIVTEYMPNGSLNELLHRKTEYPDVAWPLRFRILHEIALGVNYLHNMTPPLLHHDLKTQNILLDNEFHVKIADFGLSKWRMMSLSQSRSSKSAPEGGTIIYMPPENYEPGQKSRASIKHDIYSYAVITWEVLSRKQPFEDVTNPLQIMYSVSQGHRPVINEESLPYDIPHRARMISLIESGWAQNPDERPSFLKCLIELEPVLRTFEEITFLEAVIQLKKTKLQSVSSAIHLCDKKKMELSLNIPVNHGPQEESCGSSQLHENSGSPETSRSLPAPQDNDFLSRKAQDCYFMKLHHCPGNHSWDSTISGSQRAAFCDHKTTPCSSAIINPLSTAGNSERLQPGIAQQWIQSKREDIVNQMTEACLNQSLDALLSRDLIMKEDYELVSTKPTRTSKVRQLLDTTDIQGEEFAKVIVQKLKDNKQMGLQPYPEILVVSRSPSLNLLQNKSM

T2 sequence (O43353 whole entry): as above
T2 sequence (Q96SW2 whole entry): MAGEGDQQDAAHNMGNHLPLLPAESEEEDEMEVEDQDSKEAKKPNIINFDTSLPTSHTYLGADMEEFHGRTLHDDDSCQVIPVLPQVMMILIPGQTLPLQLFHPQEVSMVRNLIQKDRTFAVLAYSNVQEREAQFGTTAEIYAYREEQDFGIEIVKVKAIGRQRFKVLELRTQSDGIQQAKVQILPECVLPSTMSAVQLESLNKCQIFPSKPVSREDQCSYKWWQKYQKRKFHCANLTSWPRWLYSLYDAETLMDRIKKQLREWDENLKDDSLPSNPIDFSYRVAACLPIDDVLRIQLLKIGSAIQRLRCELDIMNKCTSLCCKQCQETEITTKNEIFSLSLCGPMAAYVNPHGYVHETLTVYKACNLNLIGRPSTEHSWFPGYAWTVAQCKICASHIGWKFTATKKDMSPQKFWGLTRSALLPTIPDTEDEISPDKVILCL
Sequence of Receptor-interacting serine/threonine-protein kinase 2 (O43353 whole entry): as the sequence (O43353 whole entry) above
Sequence of E3 ubiquitin-protein ligase XIAP (P98170 whole entry): as the sequence (P98170 whole entry) above
Sequence of E3 ubiquitin-protein ligase XIAP/Receptor-interacting serine/threonine-protein kinase 2 (Homo sapiens, UniProt O43353+P98170) (P98170 whole entry): as above
Sequence of E3 ubiquitin-protein ligase XIAP/Receptor-interacting serine/threonine-protein kinase 2 (Homo sapiens, UniProt O43353+P98170) (O43353 whole entry): as the sequence (O43353 whole entry) above
T1 sequence (O43353 whole entry): as above
T1 sequence (P40337 whole entry): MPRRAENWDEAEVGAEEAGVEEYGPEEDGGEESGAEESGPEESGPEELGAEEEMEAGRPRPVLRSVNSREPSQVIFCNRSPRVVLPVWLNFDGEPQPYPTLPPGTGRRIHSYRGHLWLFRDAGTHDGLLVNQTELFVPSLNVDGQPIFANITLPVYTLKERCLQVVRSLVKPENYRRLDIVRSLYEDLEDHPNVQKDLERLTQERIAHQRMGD

| Structure (SMILES) | IC50 [1] | IC50 [2] | other results |
| --- | --- | --- | --- |
| CN[C@@H](C)C(=O)N[C@H](C(=O)N1CCC[C@H]1c1nc(C(=O)c2ccc(F)cc2)cs1)C1CCN(C(=O)COCCOCCOCCOCCOc2cc3ncnc(Nc4n[nH]c(C)c4C)c3cc2S(=O)(=O)C(C)(C)C)CC1 | 63.1 nM | 158 nM |  |
| CN[C@H](C)C(=O)N[C@H](C(=O)N1C[C@@H](NC(=O)c2cnc(N3CCN(CCCOc4cc5ncnc(Nc6n[nH]c(C)c6C)c5cc4S(=O)(=O)C(C)(C)C)CC3)cn2)C[C@H]1C(=O)Nc1c(F)cccc1F)C(C)(C)C |  |  | Activity [3]: Active; Activity [4]: Active; IC50 [5]: 6310 nM |
| CN[C@@H](C)C(=O)N[C@H](C(=O)N1CCC[C@H]1c1nc(C(=O)c2ccc(F)cc2)cs1)C1CCN(C(=O)c2cnc(N3CCN(CCCOc4cc5ncnc(Nc6n[nH]c(C)c6C)c5cc4S(=O)(=O)C(C)(C)C)CC3)cn2)CC1 | 1.58 nM | 12.6 nM | Activity [6]: >70%; Activity [7]: 100%; pIC50 [8]: 5.8; IC50 [5]: 39.8 nM |
| CN[C@H](C)C(=O)N[C@@H](C(=O)N1C[C@@H](NC(=O)c2cnc(N3CCN(CCCOc4cc5ncnc(Nc6n[nH]c(C)c6C)c5cc4S(=O)(=O)C(C)(C)C)CC3)cn2)C[C@H]1c1nc(C(=O)c2ccc(F)cc2)cs1)C(C)(C)C | 2.51 nM | 0.158 nM |  |
| Cc1[nH]nc(Nc2ncnc3cc(OCCCN4CCN(C(=O)c5cnc(N6CCN(C[C@H]7CN[C@H](C)CN7CC(=O)N7CC(C)(C)c8c7cc(Cc7ccc(F)cc7)c(=O)n8C)[C@H](C)C6)nc5)CC4)c(S(=O)(=O)C(C)(C)C)cc23)c1C | 6.31 nM | 7.94 nM | pIC50 [8]: < 4; IC50 [5]: 12.6 nM |
| CN[C@@H](C)C(=O)N[C@H](C(=O)N1CCC[C@H]1c1nc(C(=O)c2ccc(F)cc2)cs1)C1CCN(C(=O)c2ccc(N3CCN(CCCOc4cc5ncnc(Nc6n[nH]c(C)c6C)c5cc4S(=O)(=O)C(C)(C)C)CC3)cc2)CC1 | 12.6 nM | 31.6 nM |  |
| CN[C@@H](C)C(=O)N[C@H](C(=O)N1CCC[C@H]1c1nc(C(=O)c2ccc(F)cc2)cs1)C1CCN(C(=O)COCCOCCOCCOCCOc2cc3nccc(Nc4ccc5scnc5c4)c3cc2S(=O)(=O)C(C)(C)C)CC1 | 10 nM | 5.01 nM | solubility kinetic [9]: 308 µM (≈ 348 µg/mL); chromatographic logD [10]: 4.5 |
| CN[C@@H](C)C(=O)N[C@H](C(=O)N1CCC[C@H]1c1nc(C(=O)c2ccc(F)cc2)cs1)C1CCN(C(=O)c2cnc(N3CCN(CCOc4cc5ncnc(Nc6n[nH]c(C)c6C)c5cc4S(=O)(=O)C(C)(C)C)CC3)cn2)CC1 | 15.8 nM | 158 nM | solubility kinetic [9]: 271 µM (≈ 296 µg/mL); CLH [11]: 0.57 mL/min/g; CLH [12]: < 0.46 mL/min/g |
| CN[C@@H](C)C(=O)N[C@H]1CN(C(=O)c2cnc(N3CCN(CCCOc4cc5ncnc(Nc6n[nH]c(C)c6C)c5cc4S(=O)(=O)C(C)(C)C)CC3)cn2)CC[C@H]2CC[C@@H](C(=O)N[C@@H]3CCCc4ccccc43)N2C1=O | 3.16 nM | 0.1 nM |  |
| Cc1ncsc1-c1ccc(CNC(=O)[C@@H]2C[C@@H](O)CN2C(=O)[C@@H](NC(=O)COCCOCCOCCOCCOc2cc3nccc(Nc4ccc5scnc5c4)c3cc2S(=O)(=O)C(C)(C)C)C(C)(C)C)cc1 |  |  | DC50 [13]: 1.5 nM; IC50 [14]: 100 nM; IC50 [15]: 100 nM |
| CN[C@@H](C)C(=O)N[C@H](C(=O)N1CCC[C@H]1c1nc(C(=O)c2ccc(F)cc2)cs1)C1CCN(C(=O)c2cnc(N3CCN(CCOc4cc5ncnc(Nc6n[nH]c(C)c6C)c5cc4S(=O)(=O)C(C)(C)C)CC3)nc2)CC1 | 20 nM |  | solubility kinetic [9]: > 311 µM; CLH [11]: 0.74 mL/min/g; CLH [12]: 0.48 mL/min/g |
| CN[C@@H](C)C(=O)N[C@H](C(=O)N1CCC[C@H]1c1nc(C(=O)c2ccc(F)cc2)cs1)C1CCN(C(=O)c2cnc(N3CCC(COc4cc5ncnc(Nc6n[nH]c(C)c6C)c5cc4S(=O)(=O)C(C)(C)C)CC3)nc2)CC1 | 25.1 nM | 10 nM |  |
| CN[C@@H](C)C(=O)N[C@H](C(=O)N1C[C@@H](NC(=O)c2cnc(N3CCN(CCCOc4cc5ncnc(Nc6n[nH]c(C)c6C)c5cc4S(=O)(=O)C(C)(C)C)CC3)cn2)CC1C(=O)NC1CCCc2ccccc21)C(C)(C)C (some centres undefined) |  | 12.6 nM |  |
| CN[C@@H](C)C(=O)N[C@H]1CN(C(=O)c2cnc(N3CCN(CCCOc4cc5ncnc(Nc6n[nH]c(C)c6C)c5cc4S(=O)(=O)C(C)(C)C)CC3)cn2)CC[C@H]2CC[C@@H](C(=O)NC3CCCc4ccccc43)N2C1=O (some centres undefined) |  | 6.31 nM |  |
| CN[C@@H](C)C(=O)N[C@H](C(=O)N1CCC[C@H]1c1nc(C(=O)c2ccc(F)cc2)cs1)C1CCN(C(=O)c2cnc(N3CCN(CCCOc4cc5ncnc(Nc6n[nH]c(C)c6C)c5cc4S(=O)(=O)C(C)(C)C)CC3)nc2)CC1 | 2 nM | 7.94 nM |  |
| CC[C@@H](NC(=O)[C@@H]1C[C@H](NC(=O)COCCOCCOCCOCCOc2cc3nccc(Nc4ccc5scnc5c4)c3cc2S(=O)(=O)C(C)(C)C)CN1C(=O)[C@@H](NC(=O)[C@H](C)NC)C(C)(C)C)c1ccccc1 | 25.1 nM | 2 nM | solubility kinetic [9]: > 235 µM; chromatographic logD [10]: 5.6 |
| CN[C@@H](C)C(=O)N[C@H](C(=O)N1Cc2cc(OCCOCCOCCOCCOc3cc4ncnc(Nc5n[nH]c(C)c5C)c4cc3S(=O)(=O)C(C)(C)C)ccc2CC1C(=O)N[C@@H]1CCCc2ccccc21)C(C)(C)C (single isomer, unassigned) | 31.6 nM | 398 nM |  |
| CN[C@@H](C)C(=O)N[C@H](C(=O)N1CCC[C@H]1c1nc(C(=O)c2ccc(F)cc2)cs1)C1CCN(C(=O)c2cnc(N3CCC(CCOc4cc5ncnc(Nc6n[nH]c(C)c6C)c5cc4S(=O)(=O)C(C)(C)C)CC3)nc2)CC1 | 15.8 nM | 39.8 nM |  |
| CN[C@@H](C)C(=O)N[C@H](C(=O)N1CCC[C@H]1c1nc(C(=O)c2ccc(F)cc2)cs1)C1CCN(C(=O)c2ccc(N3CCN(CCCOc4cc5ncnc(Nc6n[nH]c(C)c6C)c5cc4S(=O)(=O)C(C)(C)C)CC3)nc2)CC1 | 7.94 nM | 10 nM |  |
| CN[C@@H](C)C(=O)N[C@H](C(=O)N1CCC[C@H]1c1nc(C(=O)c2ccc(F)cc2)cs1)C1CCN(C(=O)c2cnc(N3CCC(CCCOc4cc5ncnc(Nc6n[nH]c(C)c6C)c5cc4S(=O)(=O)C(C)(C)C)CC3)nc2)CC1 | 3.16 nM | 31.6 nM |  |
| CC(C)(C)S(=O)(=O)c1cc2c(Nc3ccc4scnc4c3)ccnc2cc1OCCOCCOCCOCCOCC(=O)Nc1cccc2c1CN(C1CCC(=O)NC1=O)C2=O (centres undefined) |  |  | DC50 [16]: 6.2 nM; IC50 [15]: 63.1 nM |
| CN[C@@H](C)C(=O)N[C@H](C(=O)N1CCC[C@H]1c1nc(C(=O)c2ccc(F)cc2)cs1)C1CCN(C(=O)c2ccc(N3CCN(CCOc4cc5ncnc(Nc6n[nH]c(C)c6C)c5cc4S(=O)(=O)C(C)(C)C)CC3)nc2)CC1 | 10 nM | 126 nM | solubility kinetic [9]: > 304 µM; CLH [11]: 1.17 mL/min/g; CLH [12]: 0.55 mL/min/g |
| Cc1[nH]nc(Nc2ncnc3cc(OCCCN4CCN(C(=O)c5cnc(N6CCN(C[C@H]7CN[C@H](C)CN7CC(=O)N7CC(C)(C)c8ncc(Cc9ccc(F)cc9)cc87)[C@H](C)C6)nc5)CC4)c(S(=O)(=O)C(C)(C)C)cc23)c1C | 2.51 nM | 25.1 nM |  |
| CN[C@@H](C)C(=O)N[C@H](C(=O)N1Cc2cc(OCCOCCOCCOCCOc3cc4nccc(Nc5ccc6scnc6c5)c4cc3S(=O)(=O)C(C)(C)C)ccc2C[C@@H]1C(=O)N[C@@H]1CCCc2ccccc21)C(C)(C)C | 10 nM | 10 nM | DC50 [17]: 0.2 nM; solubility kinetic [9]: 21 µM (≈ 22.9 µg/mL); chromatographic logD [10]: 6.1 |

Reference: ChEMBL document CHEMBL4831517, “Optimization of a Series of RIPK2 PROTACs” (J Med Chem, 2021)
